Reference: PMC10066365, “Nemacol is a small molecule inhibitor of C. elegans vesicular acetylcholine transporter with anthelmintic potential” (Nature Communications, 2023)
Values joined by “and” are separate entries in the source; they are usually repeats but may differ in a detail not shown here. Identical values can stand only once.

System: C. elegans
Experiment: C. elegans motor phenotype scoring on solid media (Punc/jerky-unc, coiled, paralyzed), wild-type young adults
Type: in vivo, Caenorhabditis elegans
Settings: for any phene, mean % fraction of young adults exhibiting any phenotype (coiled, jerky-Unc or paralyzed) / atypical locomotion (number of animals) / coiled (number of animals) / no phene (number of animals) / paralyzed (number of animals): one hour; for any phene, mean % fraction of young adults exhibiting any phenotype (coiled, jerky-Unc or paralyzed): mean of three biological replicates; for atypical locomotion (number of animals) / coiled (number of animals) / no phene (number of animals) / paralyzed (number of animals): young adults, 20 animals per trial, single replicate counts; for AVERAGES Fraction Coiled / AVERAGES Fraction Paralyzed / AVERAGES Fraction Punc: average of 3 replicates
[1] = 15 μM, 30 min, single replicate
[2] = 15 μM, 60 min, single replicate
[3] = 15 μM, 90 min, single replicate
[4] = 15 μM, 120 min, single replicate
[5] = 15 μM, 240 min, single replicate
[6] = 15 μM, 360 min, single replicate
[7] = 30 μM, 30 min, single replicate
[8] = 30 μM, 60 min, single replicate
[9] = 30 μM, 90 min, single replicate

O=[N+]([O-])c1ccc(N2CCN(CC3CC=CCC3)CC2)cc1 (stereo not drawn) [Nemacol-4]
any phene, mean % fraction of young adults exhibiting any phenotype (coiled, jerky-Unc or paralyzed) (3.75uM): 15%
atypical locomotion (number of animals) (3.75uM): 0 and 4 and 11
coiled (number of animals) (3.75uM): 0 and 1
no phene (number of animals) (3.75uM): 20 and 14 and 8
paralyzed (number of animals) (3.75uM): 0 and 1
AVERAGES Fraction Coiled (15 μM, 30 min): 0.0
AVERAGES Fraction Paralyzed (15 μM, 30 min): 0.0
AVERAGES Fraction Punc (15 μM, 30 min): 0.222
C1 (number of animals) [1]: 0
C2 (number of animals) [1]: 0
Fraction Coiled [1]: 0.0
Fraction Paralyzed [1]: 0.0
Fraction Punc [1]: 0.111 and 0.4
NP (number of animals) [1]: 16 and 11
P (number of animals) [1]: 0
Punc (number of animals) [1]: 2 and 7
AVERAGES Fraction Coiled (15 μM, 60 min): 0.0185
AVERAGES Fraction Paralyzed (15 μM, 60 min): 0.0
AVERAGES Fraction Punc (15 μM, 60 min): 0.426
C1 (number of animals) [2]: 1
C2 (number of animals) [2]: 0
Fraction Coiled [2]: 0.0556
Fraction Paralyzed [2]: 0.0
Fraction Punc [2]: 0.4 and 0.6
NP (number of animals) [2]: 10 and 7
P (number of animals) [2]: 0
Punc (number of animals) [2]: 7 and 11
AVERAGES Fraction Coiled (15 μM, 90 min): 0.0
AVERAGES Fraction Paralyzed (15 μM, 90 min): 0.0
AVERAGES Fraction Punc (15 μM, 90 min): 0.352
C1 (number of animals) [3]: 0
C2 (number of animals) [3]: 0
Fraction Coiled [3]: 0.0
Fraction Paralyzed [3]: 0.0
Fraction Punc [3]: 0.5
NP (number of animals) [3]: 9
P (number of animals) [3]: 0
Punc (number of animals) [3]: 9
AVERAGES Fraction Coiled (15 μM, 120 min): 0.0185
AVERAGES Fraction Paralyzed (15 μM, 120 min): 0.0
AVERAGES Fraction Punc (15 μM, 120 min): 0.3
C1 (number of animals) [4]: 0
C2 (number of animals) [4]: 0
Fraction Coiled [4]: 0.0
Fraction Paralyzed [4]: 0.0
Fraction Punc [4]: 0.333 and 0.4
NP (number of animals) [4]: 12 and 11
P (number of animals) [4]: 0
Punc (number of animals) [4]: 6 and 7
AVERAGES Fraction Coiled (15 μM, 240 min): 0.0185
AVERAGES Fraction Paralyzed (15 μM, 240 min): 0.0
AVERAGES Fraction Punc (15 μM, 240 min): 0.0741
C1 (number of animals) [5]: 1
C2 (number of animals) [5]: 0
Fraction Coiled [5]: 0.0556
Fraction Paralyzed [5]: 0.0
Fraction Punc [5]: 0.0 and 0.167
NP (number of animals) [5]: 15
P (number of animals) [5]: 0
Punc (number of animals) [5]: 0 and 3
AVERAGES Fraction Coiled (15 μM, 360 min): 0.0
AVERAGES Fraction Paralyzed (15 μM, 360 min): 0.0
AVERAGES Fraction Punc (15 μM, 360 min): 0.0
C1 (number of animals) [6]: 0
C2 (number of animals) [6]: 0
Fraction Coiled [6]: 0.0
Fraction Paralyzed [6]: 0.0
Fraction Punc [6]: 0.0
NP (number of animals) [6]: 18
P (number of animals) [6]: 0
Punc (number of animals) [6]: 0
Next Day Animals alive (moving fine) (15 μM, next day, single replicate): alive, recovered
any phene, mean % fraction of young adults exhibiting any phenotype (coiled, jerky-Unc or paralyzed) (15uM): 45%
atypical locomotion (number of animals) (15uM): 4 and 2 and 5 and 8
coiled (number of animals) (15uM): 0 and 1 and 6 and 3
no phene (number of animals) (15uM): 16 and 15 and 17 and 18 and 0
paralyzed (number of animals) (15uM): 0 and 9
AVERAGES Fraction Coiled (30 μM, 30 min): 0.0556
AVERAGES Fraction Paralyzed (30 μM, 30 min): 0.0
AVERAGES Fraction Punc (30 μM, 30 min): 0.6
C1 (number of animals) [7]: 0 and 2
C2 (number of animals) [7]: 1 and 0
Fraction Coiled [7]: 0.0556 and 0.0 and 0.111
Fraction Paralyzed [7]: 0.0
Fraction Punc [7]: 0.6 and 0.444 and 0.7
NP (number of animals) [7]: 6 and 10 and 3
P (number of animals) [7]: 0
Punc (number of animals) [7]: 11 and 8 and 13
AVERAGES Fraction Coiled (30 μM, 60 min): 0.0752
AVERAGES Fraction Paralyzed (30 μM, 60 min): 0.0
AVERAGES Fraction Punc (30 μM, 60 min): 0.7
C1 (number of animals) [8]: 0
C2 (number of animals) [8]: 3 and 1 and 0
Fraction Coiled [8]: 0.167 and 0.0588 and 0.0
Fraction Paralyzed [8]: 0.0
Fraction Punc [8]: 0.7 and 0.529 and 0.9
NP (number of animals) [8]: 2 and 7 and 1
P (number of animals) [8]: 0
Punc (number of animals) [8]: 13 and 9 and 17
AVERAGES Fraction Coiled (30 μM, 90 min): 0.0556
AVERAGES Fraction Paralyzed (30 μM, 90 min): 0.0556
AVERAGES Fraction Punc (30 μM, 90 min): 0.667
C1 (number of animals) [9]: 0
C2 (number of animals) [9]: 1 and 2 and 0
Fraction Coiled [9]: 0.0556 and 0.111 and 0.0
Fraction Paralyzed [9]: 0.167 and 0.0
Fraction Punc [9]: 0.7 and 0.5 and 0.8
NP (number of animals) [9]: 1 and 7 and 4
